Results reported in US20260216174A1, “TREATMENT OF ER+ BREAST CANCER COMPRISING HOMOLOGOUS RECOMBINATION DEFICIENCY USING PARG INHIBITOR” (IDEAYA BIOSCIENCES, INC., priority 2023, published 2026).

How the values were obtained:
Assay in all cases: Cellular antiproliferative response, Assay 2 (nuclear dye intensity)
Type in all cases: cell-based
HCC1937 = conditions: Homo sapiens, 240 h; HCC1937, HR mutant BRCA1, Assay 2, 10-day incubation; read-out: Log10 (IC50) (converted)
Experimental: (§1) Compound A was tested in a cell line panel. Cell lines were grown in RPMI 1640, 10% FBS, 2 mM L-alanyl-L-glutamine, 1 mM Na pyruvate, or a special medium. Cells were seeded into 384-well plates and incubated in a humidified atmosphere of 5% CO2 at 37° C. The following day, Compound A was added by serial dilution in half-log steps from the highest test concentration of 30 μM and assayed over ten concentrations. A time zero untreated cell plate was also generated. At seven days post-seeding, the growth media were replaced, and the plates were re-dosed with the test compound. After a 10-day incubation period, cells were fixed and stained with a fluorescent nuclear dye. Automated fluorescence microscopy was carried out using a Molecular Devices ImageXpress Micro XL high-content imager, and images were collected with a 4× objective. 16-bit TIFF images were acquired and analyzed with MetaXpress 5.1.0.41 software.
(§2) Cell proliferation effects of Compound A was measured using the fluorescent intensity of the incorporated nuclear dye as a percent of the control (POC), where POC=(Ix/I0)×100. Ix=nuclear intensity at concentration x and I0=average nuclear intensity of the untreated vehicle wells. Cellular IC50 was calculated using nonlinear regression to a sigmoidal single-site dose response model. Curve fitting, calculations, and report generation was performed using a custom data reduction engine and MathIQ based software (AIM).

HCC1395 = conditions: Homo sapiens, 240 h; HCC1395, HR mutant BRCA1, BRCA2, Assay 2, 10-day incubation; read-out: Log10 (IC50) (converted)
Experimental: as §1, §2

CAL-51 = conditions: Homo sapiens, 240 h; CAL-51, HR mutant BRCA2, CHEK1, Assay 2, 10-day incubation; read-out: Log10 (IC50) (converted)
Experimental: as §1, §2

HCC1428 = conditions: Homo sapiens, 240 h; HCC1428, HR mutant BRCA2, Assay 2, 10-day incubation; read-out: Log10 (IC50) (converted)
Experimental: as §1, §2

AU565 = conditions: Homo sapiens, 240 h; AU565, HR mutant CHEK2, Assay 2, 10-day incubation; read-out: Log10 (IC50) (converted)
Experimental: as §1, §2

HCC202 = conditions: 240 h; HCC202, HR mutant BRCA2, Assay 2, 10-day incubation; read-out: Log10 (IC50) (converted)
Experimental: as §1, §2

HCC1599 = conditions: Homo sapiens, 240 h; HCC1599, HR mutant BRCA2, Assay 2, 10-day incubation; read-out: Log10 (IC50) (converted)
Experimental: as §1, §2

EFM-19 = conditions: Homo sapiens, 240 h; EFM-19, HR mutant ATM, Assay 2, 10-day incubation; read-out: Log10 (IC50) (converted)
Experimental: as §1, §2

CAL-85-1 = conditions: Homo sapiens, 240 h; CAL-85-1, HR mutant BRCA2, Assay 2, 10-day incubation; read-out: Log10 (IC50) (converted)
Experimental: as §1, §2

HCC1954 = conditions: Homo sapiens, 240 h; HCC1954, HR mutant BRCA1, Assay 2, 10-day incubation; read-out: Log10 (IC50) (converted)
Experimental: as §1, §2

MDA-MB-436 = conditions: Homo sapiens, 240 h; MDA-MB-436, HR mutant BRCA1, Assay 2, 10-day incubation; read-out: Log10 (IC50) (converted)
Experimental: as §1, §2

HCC1569 = conditions: Homo sapiens, 240 h; HCC1569, HR mutant BRCA2, Assay 2, 10-day incubation; read-out: Log10 (IC50) (converted)
Experimental: as §1, §2

BT-474 = conditions: Homo sapiens, 240 h; BT-474, HR mutant BRCA2, Assay 2, 10-day incubation; read-out: Log10 (IC50) (converted)
Experimental: as §1, §2

- IC50 (HCC1937): 220 nM
- IC50 (HCC1395): 30 nM
- IC50 (HCC1428): 10 nM
- IC50 (HCC202): 640 nM
- IC50 (HCC1599): 1310 nM
- IC50 (HCC1954): 370 nM
- IC50 (MDA-MB-436): 52.4 nM
- IC50 (HCC1569): 80 nM
- IC50 (BT-474): 847 nM
SMILES: C[C@H]1CN(c2cc(S(=O)(=O)NC3(C)CC3)cc3c2cnn3-c2nnc(C(F)F)s2)C[C@H](C)N1 [Compound A, 1-(5-(difluoromethyl)-1,3,4-thiadiazol-2-yl)-4-((3S,5S)-3,5-dimethylpiperazin-1-yl)-N-(1-methylcyclopropyl)-1H-indazole-6-sulfonamide]
- IC50 (CAL-51): 3530 nM
- IC50 (AU565): 52.3 nM
- IC50 (EFM-19): 689 nM
- IC50 (CAL-85-1): 100 nM
